Results on six compounds are retold here after ChEMBL document CHEMBL5214991, “Discovery of 4-methyl-3-(pyridin-2-ylamino)benzamide derivatives as C-Abl inhibitors with potential neuroprotective effect” (Bioorg Med Chem, 2022).

The source made the active and inactive calls. No cut-off for these calls is given here. Where only a bound is given, the exact number is not on record here.

In data set [1] the test system is SH-SY5Y. Put plainly: Neuroprotective activity against MPP+-induced cell death in human SH-SY5Y cells assessed as increase in cell viability at 0.08 to 20 uM measured after 48 hrs by propidium iodide staining method. Particulars: dose 0.08-20 µM. In kind it is functional, cell-based.
The nature of data set [2]: Cytotoxicity against human SH-SY5Y cells incubated for 48 hrs and measured by MTT assay. In kind it is toxicity, cell-based. A general note: Formazan colour is commonly taken as a measure of viable cells.
Data set [3] is described as follows: AUC (0 to t) in male Sprague-Dawley rat at 20 mg/kg, po measured by LC-MS/MS analysis. The arrangement: dose 20 mg/kg, route po. Format: ADME, organism-based. As to conditions: in vivo.
Data set [4] can be described thus: AUC (0 to infinity) in male Sprague-Dawley rat at 5 mg/kg, iv measured by LC-MS/MS analysis. As to conditions: in vivo. In kind it is ADME, organism-based. The arrangement: time infinity, dose 5 mg/kg, route iv.
The nature of data set [5]: MRT (0 to infinity) in male Sprague-Dawley rat at 5 mg/kg, iv measured by LC-MS/MS analysis. Particulars: in vivo. In kind it is ADME, organism-based.
The nature of data set [6]: Cytotoxicity against rat H9c2 cells incubated for 48 hrs and measured by MTT assay. In kind it is toxicity, cell-based.
A short description of data set [7]: Half-life in male Sprague-Dawley rat at 5 mg/kg, iv measured by LC-MS/MS analysis. Format: ADME, organism-based. As to conditions: in vivo.
The nature of data set [8]: Cytotoxicity against human L02 cells incubated for 48 hrs and measured by MTT assay. In kind it is toxicity, cell-based.
Data set [9] can be described thus: Cmax in male Sprague-Dawley rat at 20 mg/kg, po measured by LC-MS/MS analysis. The arrangement: dose 20 mg/kg, route po. Particulars: in vivo. Format: ADME, organism-based.
The nature of data set [10]: Cytotoxicity against HEK293 cells incubated for 48 hrs and measured by MTT assay. In kind it is toxicity, cell-based. As to conditions: human.
Data set [11] in a line: Ratio of drug concentration in brain to plasma in male Sprague-Dawley rat at […], iv measured by LC-MS/MS analysis. In kind it is ADME, organism-based. As to conditions: dose 5 mg/kg, read-out: BPR.
The nature of data set [12]: Half-life in male Sprague-Dawley rat at 20 mg/kg, po measured by LC-MS/MS analysis. Particulars: in vivo. Format: ADME, organism-based.
The nature of data set [13]: MRT (0 to t) in male Sprague-Dawley rat at 5 mg/kg, iv measured by LC-MS/MS analysis. Particulars: in vivo. Format: ADME, organism-based.
For data set [14], the system named is SH-SY5Y. Put plainly: Neuroprotective activity against MPP+-induced cell death in human SH-SY5Y cells assessed as reduction in apoptosis at 1.25 to 5 uM measured after 48 hrs by propidium iodide staining method. As to conditions: dose 1.25-5 µM. Format: functional, cell-based.
The nature of data set [15]: MRT (0 to t) in male Sprague-Dawley rat at 20 mg/kg, po measured by LC-MS/MS analysis. As to conditions: in vivo. In kind it is ADME, organism-based.
Data set [16] in a line: AUC (0 to infinity) in male Sprague-Dawley rat at 20 mg/kg, po measured by LC-MS/MS analysis. In kind it is ADME, organism-based. As to conditions: in vivo. The arrangement: time infinity, dose 20 mg/kg, route po.
Data set [17] can be described thus: Volume of distribution at steady state in male Sprague-Dawley rat at 5 mg/kg, iv measured by LC-MS/MS analysis. In kind it is ADME, organism-based. Particulars: in vivo, read-out: Vdss.
A short description of data set [18]: AUC (0 to t) in male Sprague-Dawley rat at 5 mg/kg, iv measured by LC-MS/MS analysis. Format: ADME, organism-based. The arrangement: dose 5 mg/kg, route iv. Particulars: in vivo.
The nature of data set [19]: Clearance in male Sprague-Dawley rat at 5 mg/kg, iv measured by LC-MS/MS analysis. Format: ADME, organism-based. Particulars: in vivo.
Data set [20] can be described thus: Tmax in male Sprague-Dawley rat at 20 mg/kg, po measured by LC-MS/MS analysis. Format: ADME, organism-based. Particulars: in vivo.
Data set [21] in a line: MRT (0 to infinity) in male Sprague-Dawley rat at 20 mg/kg, po measured by LC-MS/MS analysis. In kind it is ADME, organism-based. Particulars: in vivo.
Data set [22] in a line: Oral bioavailability in male Sprague-Dawley rat at 20 mg/kg measured by LC-MS/MS analysis. Particulars: in vivo. In kind it is ADME, organism-based.

As a reminder, the IC50 is the midpoint of a concentration-inhibition curve. A higher IC50 goes with a need for much substance. A word on the AUC(0-t): it is the area under the concentration-time curve up to a stated or last time point. As usually defined, the AUC(0-inf) is total exposure, with the tail of the curve extrapolated. Lower therefore signals low exposure. For orientation: MRT inf means a mean duration of stay, worked out from the concentration-time curve. In general, half-life refers to the time in which the quantity being followed falls by half. A high value points to slow loss. One may read the Cmax as the peak of the concentration-time curve. As a reminder, the MRT last is a mean duration of stay, worked out from the concentration-time curve. For orientation: clearance means the volume of plasma or blood freed of the substance per unit of time. A high value points to a high capacity for elimination. One may read the Tmax as the time from dosing to the highest level. Usually bioavailability stands for dose-corrected exposure relative to a reference, in per cent. The low end stands for little systemic uptake, the high end for much systemic uptake. As for `Cc1ccc(C(=O)Nc2cc(-c3cnn(C)c3)cc(C(F)(F)F)c2)cc1Nc1cc(-c2cccnc2)ccn1`, the result in [1] and in [14] was Active. Further, the IC50 at 48 h in data set [2], in data set [6], in [8] and in data set [10] was greater than 80 µM in each case. Moreover, the AUC(0-t) in [3] is 9890 ng·h/mL; in data set [18], 5120 ng·h/mL. Also, the area under the curve AUC(0-inf) came out at 5200 ng·h/mL in [4] and 9900 ng·h/mL in data set [16]. For the same compound, the mean residence time (MRT inf) stood at 5.29 h in data set [5] and 5.93 h in [21]. Further, the half-life was 3.62 h in [7] and 3.54 h in [12]. For the same compound, the Cmax in [9] turned out to be 1380 ng/mL. In addition, in [11], the Kp amounted to 4. Further, the values for the mean residence time (MRT last) in [13] and in data set [15] were 5.29 h and 5.9 h, respectively. Further, the Vd in data set [17] worked out at 5.36 L/kg. In data set [19], this compound had a clearance of 17.7 mL/min/kg. For the same compound, in data set [20], the Tmax came to 2.33 h. This compound also yielded a bioavailability in data set [22] of 47.6%.

Turning to `Cc1ccc(C(=O)Nc2ccc(CN3CCN(C)CC3)c(C(F)(F)F)c2)cc1Nc1cc(-c2cccnc2)ccn1`, the outcome in [1] was Active. For the same compound, the half-inhibitory concentration (IC50) at 48 h in data set [2] was 19 µM; in [6] it was 9.12 µM; in [8] it was 37.4 µM; in data set [10], 14 µM.

On to `Cc1ccc(C(=O)Nc2ccc(CN3CCN(C)CC3)c(C(F)(F)F)c2)cc1Nc1cc(-c2cncnc2)ccn1`, for which, in data set [1], the outcome was Active. Also, the IC50 at 48 h in data set [2] came out at 12 µM; in data set [6], 16.7 µM; in data set [8], 30.1 µM; in [10] it was 17.1 µM.

On to `Cc1cn(-c2cc(NC(=O)c3ccc(C)c(Nc4cc(-c5cccnc5)ccn4)c3)cc(C(F)(F)F)c2)cn1`, for which the outcome in data set [1] was Active. Besides, the half-maximal inhibitory concentration (IC50) at 48 h in [2], in [6], in data set [8] and in data set [10] was greater than 80 µM in each case.

For `Cc1ccc(C(=O)Nc2cc(-c3cnn(C)c3)cc(C(F)(F)F)c2)cc1Nc1cc(-c2cncnc2)ccn1`, the outcome in data set [1] was Active. Moreover, the IC50 at 48 h in data set [2], in data set [6], in data set [8] and in data set [10] was greater than 80 µM each time.

In the case of `Cc1cn(-c2cc(NC(=O)c3ccc(C)c(Nc4nccc(-c5cccnc5)n4)c3)cc(C(F)(F)F)c2)cn1` [NILOTINIB], in [1], the outcome was Active. The IC50 at 48 h in data set [2] turned out to be 38.5 µM; in [6], 21.3 µM; in data set [8] it was 40.4 µM; in data set [10], 8.4 µM. The compound also yielded a bioavailability in [22] of 27.1%.
